PubChem BioAssay AID328 (DTP/NCI, 2004)
Toxic doses and inconclusive results are not listed. How the source made its calls: active means survival T/C of 150% or more; inactive means T/C below 125% in these data.

Tested on: BDF1 mice, P388 leukemia ip, median survival T/C
Assay: NCI In Vivo Anticancer Drug Screen. Data for tumor model P388 Leukemia (intraperitoneal) in B6D2F1 (BDF1) mice
Conditions: endpoint: median survival time, higher = longer survival
Outline: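 Read-out is survival of treated animals expressed relative to the vehicle group, as a T/C ratio.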

[1] = dose: 50.0 mg/kg/injection, schedule: Q01DX009 (ip), vehicle: saline with Tween-80
[2] = dose: 100.0 mg/kg/injection, schedule: Q04DX003 (ip), vehicle: saline with Tween-80
[3] = dose: 200.0 mg/kg/injection, schedule: Q04DX003 (ip), vehicle: saline with Tween-80
[4] = dose: 400.0 mg/kg/injection, schedule: Q04DX003 (ip), vehicle: saline with Tween-80
[5] = dose: 6.25 mg/kg/injection, schedule: Q01DX009 (ip), vehicle: saline with Tween-80
[6] = dose: 12.5 mg/kg/injection, schedule: Q01DX009 (ip), vehicle: saline with Tween-80
[7] = dose: 25.0 mg/kg/injection, schedule: Q01DX009 (ip), vehicle: saline with Tween-80
[8] = dose: 100.0 mg/kg/injection, schedule: Q01DX009 (ip), vehicle: saline with Tween-80
[9] = dose: 200.0 mg/kg/injection, schedule: Q01DX009 (ip), vehicle: saline with Tween-80
[10] = dose: 400.0 mg/kg/injection, schedule: Q01DX009 (ip), vehicle: saline with Tween-80

Measured: T/C

C=C(C)COP(=O)(OCC(=C)C)OCC(=C)C
inactive: dose: 50.0 mg/kg/injection, schedule: Q01DX009 (ip), vehicle: Klucel (hydroxypropylcellulose) (HPC) 104 % of control | dose: 100.0 mg/kg/injection, schedule: Q01DX009 (ip), vehicle: Klucel (hydroxypropylcellulose) (HPC) 100 % of control | dose: 100.0 mg/kg/injection, schedule: Q04DX003 (ip), vehicle: Klucel (hydroxypropylcellulose) (HPC) 104 % of control | dose: 200.0 mg/kg/injection, schedule: Q01DX009 (ip), vehicle: Klucel (hydroxypropylcellulose) (HPC) 109 % of control | dose: 200.0 mg/kg/injection, schedule: Q04DX003 (ip), vehicle: Klucel (hydroxypropylcellulose) (HPC) 95 % of control | dose: 400.0 mg/kg/injection, schedule: Q04DX003 (ip), vehicle: Klucel (hydroxypropylcellulose) (HPC) 95 % of control

Cc1ccc(C(=O)N(N)C2CCCCC2)cc1
inactive: [1] 92 % of control

N#Cc1nnc2cc[nH]n2c1=O
inactive: dose: 100.0 mg/kg/injection, schedule: Q04DX002 (ip), vehicle: saline with Tween-80 100 % of control | dose: 200.0 mg/kg/injection, schedule: Q04DX002 (ip), vehicle: saline with Tween-80 103 % of control | dose: 400.0 mg/kg/injection, schedule: Q04DX002 (ip), vehicle: saline with Tween-80 109 % of control

Cc1cc(C)c(NC(=O)c2ccccc2Cl)c(C)c1
inactive: [2] 100 % of control | [3] 109 % of control | [4] 95 % of control

CC(=O)Nc1cc(OC(C)=O)n(-c2ccccc2)n1
inactive: dose: 87.5 mg/kg/injection, schedule: Q01DX009 (ip), vehicle: saline with Tween-80 97 % of control | dose: 175.0 mg/kg/injection, schedule: Q01DX009 (ip), vehicle: saline with Tween-80 86 % of control | dose: 350.0 mg/kg/injection, schedule: Q01DX009 (ip), vehicle: saline with Tween-80 98 % of control

CCCCc1c(C)[nH]c(=S)[nH]c1=O
inactive: [2] 95 % of control | [3] 109 % of control | [4] 95 % of control

CC(=O)SCCC(=O)O
inactive: [5] 109 % of control | dose: 6.25 mg/kg/injection, schedule: Q04DX003 (ip), vehicle: saline with Tween-80 100 % of control | [6] 100 % of control | dose: 12.5 mg/kg/injection, schedule: Q04DX003 (ip), vehicle: saline with Tween-80 95 % of control | [7] 109 % of control | dose: 25.0 mg/kg/injection, schedule: Q04DX003 (ip), vehicle: saline with Tween-80 100 % of control

O=C(Cn1ccc(=O)[nH]c1=O)c1cccs1
inactive: [8] 90 % of control | [2] 100 % of control | [9] 86 % of control | [3] 95 % of control | [10] 100 % of control | [4] 95 % of control

O=C1C2CC=CCC2C(=O)N1SC(Cl)(Cl)Cl (stereo unspecified)
inactive: [5] 120 % of control | [6] 120 % of control

O=C(O)C1CSC(c2ccccc2)N1 (stereo unspecified)
inactive: [7] 111 % of control | [8] 109 % of control | [9] 100 % of control

COc1cccc(NC(=O)CCC(=O)O)c1
inactive: [8] 104 % of control | [9] 100 % of control | [10] 100 % of control

Cc1nc(N2CC2)nc(N2CC2)c1[N+](=O)[O-]
inactive: dose: 0.62 mg/kg/injection, schedule: Q01DX010 (ip), vehicle: saline 122 % of control | dose: 0.63 mg/kg/injection, schedule: Q01DX010 (ip), vehicle: saline 100 % of control

c1cc2c3c(cccc3c1)N1C(=N2)Sc2nc3ccccc3nc21
inactive: [1] 89 % of control | [8] 89 % of control | [9] 95 % of control

CCC(CO)N1CNC(=S)NC1 (stereo unspecified)
inactive: dose: 50.0 mg/kg/injection, schedule: Q01DX009 (ip), vehicle: saline 97 % of control | dose: 100.0 mg/kg/injection, schedule: Q01DX009 (ip), vehicle: saline 92 % of control | dose: 200.0 mg/kg/injection, schedule: Q01DX009 (ip), vehicle: saline 108 % of control

CC(Nc1ccc(Br)cc1[N+](=O)[O-])C(=O)O (stereo unspecified)
inactive: [7] 122 % of control | [1] 94 % of control | [8] 112 % of control | [9] 114 % of control
